Test results taken from patent US20120065365A1, “Stable Radiopharmaceutical Compositions and Methods for Their Preparation” (BRACCO IMAGING S.P.A., priority 2003, published 2012).
Read-outs that look alike come from different tables or passages of the source.

What was measured:
[1] = format: physicochemical; settings: ^177Lu-A (3.6 mCi) prepared in presence of 2.5 mg/mL stabilizer
Protocol: To lead-shielded 4-mL vials was added 200 μL of the individual NaOAc-stabilizer solutions, 3.58 mCi ^177LuCl3 (avg) and 5.08 μg COMPOUND A (dissolved in water). The ratio of COMPOUND A to Lutetium was 3:1 for all samples. The reaction mixtures were heated to 100° C. for 5 minutes, then cooled, treated with Na2EDTA.2H2O, subdivided and stored as described in Example 9. The radiochemical purity (RCP) percentage data obtained are listed Table 12.

[2] = Radiostability (RCP, Met═O by HPLC) of preformed ^177Lu-A with individual amino acids added (Example 1); format: physicochemical; settings: amino acid 6.6 mg/mL, room temperature
Protocol: (§1) The injection volume was 20 μL.
Solutions of the individual amino acids L-Methionine, L-Selenomethionine, L-cysteine HCl.H2O, L-Tryptophan, L-Histidine, and Glycine were prepared at a concentration of 10 mg/mL in 10 mM Dulbecco's phosphate-buffered saline, pH 7.0 [PBS].
The final radioactive concentration of each sample was ˜20 mCi/mL.

[3] = format: physicochemical
Protocol: The reaction vial was crimp-sealed and heated at 100° C. for 5 min. […] The sample was stored in an autosampler in which the temperature is ˜6° C. […] than room temperature, and analyzed by RP-HPLC for up to 24 hours.
L-Selenomethionine: ^177Lu-B was prepared, diluted and analyzed as described above, but 5 mg of L-Se-Met was used in place of PDTC, the heating time was 10 minutes, and the quantity of radioactivity used was 52 mCi.
L-cysteine ethyl ester, HCl: ^177Lu-B was prepared, diluted and analyzed as described above, but 5 mg of L-CEE, hydrochloride salt was used in place of PDTC, the heating time was 5 minutes and the quantity of radioactivity used was 50 mCi.
L-cysteine HCl.H2O: ^177Lu-B was prepared, diluted and analyzed as described above, but 5 mg of L-Cys HCl.H2O was used in place of PDTC, the heating time was 8 minutes and the quantity of radioactivity used was 53 mCi.

[4] = Labeling efficiency and stability of ^111In-B with selenomethionine 2.5 mg/mL (Example 21); format: physicochemical
Protocol: A solution of L-selenomethionine (20 mg/mL) was prepared by dissolving it in NaOAc buffer (0.2 M, pH 4.0). To a lead-shielded 2-mL vial was added 111 μL of NaOAc buffer (0.2 M, pH 4.0), 25 μL selenomethionine solution (0.5 mg of Se-Met), 4 μL of COMPOUND B (20 μg in 0.01 N HCl) and 1.0 mCi ^111InCl3 in 60 μL of 0.05 N HCl. A control reaction was run containing all reagents above, but substituting NaOAc buffer for the Se-Met solution. The reaction mixtures were heated at 100° C. for 15 minutes, and then cooled for 1 minute in an ambient-temperature water bath. To each sample, 200 μL of stabilizing solution (0.2% HSA, 5% ascorbic acid, 0.9% benzyl alcohol, 20 mM Se-Met in 50 mM citrate buffer, pH 5.3) and 2 μL of 1% Na2EDTA.2H2O in water were added, and then each was analyzed stored at room temperature for up to 6 hours and analyzed by HPLC as described below. HPLC conditions: Vydac C18 column, 4.6×250 mm, 5 μM, 1.5 mL/min flow rate at 30° C. Solvent A: 0.1% TFA in water; Solvent B: 0.085% TFA in acetonitrile. Gradient: 80% A/20% B isocratic for 20 min, ramp up to 40% A/60% B in 5 min, hold for 5 mm, return to 80% A/20% B in 5 min.

[5] = format: physicochemical; settings: ^177Lu-A (2.7-3.7 mCi) prepared in presence of 1 mg/mL stabilizer
Protocol: The injection volume was 10 μL.
Each individual stabilizer was prepared at a concentration of 1 mg/mL in sodium acetate (NaOAc) buffer (0.2 M, pH 4.8). […] The reaction mixture was heated to 100° C. for 5 minutes, and then cooled for 5 minutes in an ambient-temperature water hath. To each sample, 10 μL of 2% Na2EDTA.2H2in water was added, and then each was divided into two 100-μL aliquots. One aliquot was analyzed by HPLC (Method 5) and then stored at room temperature in a sealed lead container for 24 hours. The other aliquot was stored frozen (−10° C.) for 24 hours. Each sample was analyzed at t=24 h.

[6] = format: physicochemical; remark: listed apart in the source
Protocol: as §1
Each stabilizer was prepared at a concentration of 5 mg/mL in sodium acetate (NaOAc) buffer (0.2 M, pH 4.8). To lead-shielded 4-mL vials were added 200 μL of the individual stabilizer solutions, 3.55 mCi ^177LuCl3 (avg) and 5.44 μg COMPOUND A (dissolved in water). A second set of replicates of each sample was prepared, using the individual stabilizers. To these was added 4.37 mCi ^177LuCl3 (avg) and 6.7 μg (avg) COMPOUND A (dissolved in water). The ratio of COMPOUND A to lutetium was 3:1 for all samples. The reaction mixture was heated to 100° C. for 5 minutes then cooled for 5 minutes in an ambient-temperature water bath. To each sample, 10 μL of 2% Na2EDTA.2H2O in water was added, then each was analyzed by HPLC (Method 1 for the first set of replicates; Method 2 for the second set of replicates). The second set of replicates were stored and analyzed again at t=24 h.

[7] = Stability in Radiolysis Protecting Solution containing methionine (FIG. 4 and similar study); format: physicochemical; settings: 104 mCi, diluted 1:1 with radiolysis protecting solution (2 mg/mL DL-methionine) added after complex formation, room temperature
Protocol: Formulations stabilized by such cocktails maintained excellent radiochemical purity (RCP) values (>95% RCP) for as long as 5 days at room temperature. This stabilizing cocktail is added immediately after formation of the radioactive complex, so would be the second vial of a two-vial kit.

[8] = format: physicochemical; remark: listed apart in the source
Protocol: The reaction vial was crimp-sealed and heated at 100° C. for 10 min. […] The sample was stored in an autosampler in which the temperature is ˜6° C. […] than room temperature, and analyzed by RP-HPLC for up to 120 hours.

[9] = format: physicochemical; settings: Radiolysis Protecting Solution containing L-selenomethionine, room temperature
Protocol: ^177Lu-A and ^177Lu-B were prepared at a 50 mCi level as described in EXAMPLE 4. Immediately after cooling the reaction mixtures to room temperature, 1 mL of a Radiolysis Protecting solution was added, containing 10 mg/mL gentisic acid; 50 mg/mL ascorbic acid sodium salt; 2 mg/mL HSA; 3.92 mg/mL L-selenomethionine, 0.9% (v:v) benzyl alcohol and 1 mg/mL of Na2EDTA.2H2O in 0.05 M, pH 5.3 citrate buffer. The reaction vials were stored in the autosampler chamber and the stability was analysed by RP-HPLC over time using HPLC Methods 3 [^177Lu-A] or 4 [^177Lu-B].

[10] = format: physicochemical; settings: 50 mCi/2 mL in Radiolysis Protecting Solution containing L-methionine, room temperature
Protocol: as §1
A Radiolysis Protecting Solution was prepared to contain 10 mg/mL gentisic acid; 50 mg/mL ascorbic acid sodium salt; 2 mg/mL HSA; 2.98 mg/mL L-methionine, 0.9% (v:v) benzyl alcohol and 1 mg/mL of Na2EDTA.2H2O in 0.05 M, pH 5.3 citrate buffer. […] The mixture was incubated at 100° C. for 5 min, and then cooled to room temperature with a water bath. A 1-mL aliquot of the Radiolysis Protecting Solution was immediately added. The reaction vial was stored in an autosampler chamber and the stability was analyzed by Reversed Phase HPLC over time, using HPLC Methods 3 and 4. The results obtained for ^177Lu-B are shown in the chromatograms in FIG. 9.

Compound: C[Se]CC[C@H](N)C(=O)O [L-Selenomethionine]
- RCP % t = 24 h (frozen) ([1]; 24 h frozen): 94.7%
- RCP % t = 24 h (room temp) ([1]; 24 h room temp): 95.6%
- RCP % t = 0 h ([1]; t = 0 h): 95.7%
- 0-1 h RCP (%) ([2]; ^177Lu-A ~20 mCi/mL (3.5 mCi total), 0-1 h): 100%
- 24-h RCP (%) ([2]; ^177Lu-A ~20 mCi/mL, 24 h): 99.1%
- 48-h RCP (%) ([2]; ^177Lu-A ~20 mCi/mL, 48 h): 99.9%
- (% RCP) 3-h ([3]; ^177Lu-B (44-53 mCi) formulated with 5 mg stabilizing compound, 3 h): 94.6%
- (% RCP) 6-h ([3]; ^177Lu-B (44-53 mCi) formulated with 5 mg stabilizing compound, 6 h): 94.4%
- (% RCP) 9-h ([3]; ^177Lu-B (44-53 mCi) formulated with 5 mg stabilizing compound, 9 h): 93.3%
- (% RCP) 12-h ([3]; ^177Lu-B (44-53 mCi) formulated with 5 mg stabilizing compound, 12 h): 92.6%
- (% RCP) 24-h ([3]; ^177Lu-B (44-53 mCi) formulated with 5 mg stabilizing compound, 24 h): 90.6%
- (% RCP) 0-h ([3]; ^177Lu-B (44-53 mCi) formulated with 5 mg stabilizing compound, diluted to ~2 mL, ~6° C. above room temperature, 0 h): 95.0%
- RCP Drop over 24 hr ([3]; ^177Lu-B formulated with 5 mg stabilizing compound, 0 to 24 h): 4.4%
- RCP, % t = 0 ([4]; ^111In-B (1.0 mCi) prepared in presence of selenomethionine 2.5 mg/mL, stabilizing solution added after, t = 0): 98.3%
- RCP, % t = 6 h ([4]; ^111In-B prepared in presence of selenomethionine 2.5 mg/mL, room temperature, 6 h): 96.6%
- RCP % t = 24 h (frozen) ([5]; 24 h frozen (−10° C.)): 99.2%
- RCP % t = 24 h (room temp) ([5]; 24 h room temp): 100%
- RCP % t = 0 h ([5]; t = 0 h): 100%
- Replicate 1 RCP % t = 0 h ([6]; ^177Lu-A (3.55 mCi avg) prepared in presence of 5 mg/mL stabilizer, HPLC Method 1, t = 0 h): 57.5%
- Replicate 2 RCP % t = 0 h ([6]; ^177Lu-A (4.37 mCi avg) prepared in presence of 5 mg/mL stabilizer, HPLC Method 2, t = 0 h): 60.6%
- Replicate 2 RCP % t = 24 h ([6]; ^177Lu-A (4.37 mCi avg) prepared in presence of 5 mg/mL stabilizer, HPLC Method 2, t = 24 h): 57.1%

Compound: ^177Lu-B: the ^177Lu complex of DOTA-Gly-Abz4-Gln-Trp-Ala-Val-Gly-His-Leu-Met-NH2
- RCP for 5 days [7]: > 99%
- RCP (%) ([8]; 110.5 mCi, prepared with L-selenomethionine 2.94 mg/mL, then 4 mL saline with sodium ascorbate 50 mg/mL and benzyl alcohol, 0 hours post-reconstitution): 99.5%
- RCP (%) ([8]; L-selenomethionine 2.94 mg/mL plus ascorbate/benzyl alcohol saline, 120 (5 days) hours post-reconstitution): 99.8%
- RCP (%) ([8]; L-selenomethionine 2.94 mg/mL plus ascorbate/benzyl alcohol saline, 2 hours post-reconstitution): 99.6%
- RCP (%) ([8]; L-selenomethionine 2.94 mg/mL plus ascorbate/benzyl alcohol saline, 3 hours post-reconstitution): 99.5%
- RCP (%) ([8]; L-selenomethionine 2.94 mg/mL plus ascorbate/benzyl alcohol saline, 6 hours post-reconstitution): 99.0%
- RCP (%) ([8]; L-selenomethionine 2.94 mg/mL plus ascorbate/benzyl alcohol saline, 9 hours post-reconstitution): 99.4%
- RCP (%) ([8]; L-selenomethionine 2.94 mg/mL plus ascorbate/benzyl alcohol saline, 12 hours post-reconstitution): 99.2%
- RCP (%) ([8]; L-selenomethionine 2.94 mg/mL plus ascorbate/benzyl alcohol saline, 24 hours post-reconstitution): 99.4%
- % RCP 0-d ([9]; 50 mCi level, 0 d): 95.8%
- % RCP 1-d ([9]; 1 d): 95.7%
- % RCP 2-d ([9]; 2 d): 96.2%
- % RCP 3-d ([9]; 3 d): 96.7%
- % RCP 5-d ([9]; 5 d): 98.4%
- % RCP 0-d ([10]; 0 d): 99.8%
- % RCP 1-d ([10]; 1 d): 99.3%
- % RCP 2-d ([10]; 2 d): 99.6%
- % RCP 5-d ([10]; 5 d): 99.8%
